Measurements reported in patent publication US20260092061A1, “COMPOUNDS FOR TARGETED PROTEIN DEGRADATION” (Amphista Therapeutics Limited, priority 2022, published 2026).

Molecular target: T1, BRD9 (Homo sapiens, UniProt Q9H8M2)
T1 sequence (Q9H8M2 1-597): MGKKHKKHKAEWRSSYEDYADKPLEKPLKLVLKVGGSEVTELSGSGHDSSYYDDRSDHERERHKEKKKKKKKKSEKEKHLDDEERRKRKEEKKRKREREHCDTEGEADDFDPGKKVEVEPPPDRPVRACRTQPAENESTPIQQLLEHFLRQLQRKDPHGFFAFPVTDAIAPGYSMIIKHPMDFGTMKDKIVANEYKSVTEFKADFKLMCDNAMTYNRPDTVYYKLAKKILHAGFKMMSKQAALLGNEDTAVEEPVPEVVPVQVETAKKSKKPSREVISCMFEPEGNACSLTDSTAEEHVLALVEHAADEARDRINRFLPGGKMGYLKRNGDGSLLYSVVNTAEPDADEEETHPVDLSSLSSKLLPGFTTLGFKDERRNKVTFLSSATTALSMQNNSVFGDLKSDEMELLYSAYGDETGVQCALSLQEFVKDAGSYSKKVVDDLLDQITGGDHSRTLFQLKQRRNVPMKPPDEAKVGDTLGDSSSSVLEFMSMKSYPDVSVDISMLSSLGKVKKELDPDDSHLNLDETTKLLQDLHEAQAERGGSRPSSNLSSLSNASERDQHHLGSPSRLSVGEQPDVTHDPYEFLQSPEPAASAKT
Assay: Degradation of BRD9 (IF), immunofluorescence in MV4-11 cells, 24 hours (Assay Protocol 2)
Format: cell-based
Design: A suspension of MV4-11 cells (ATCC CRL-9591) was prepared; host or cells: MV4-11
Conditions: BRD9 degradation; for DC50: Assay protocol 2, read-out: DC50; for Dmax: MV4-11, Assay protocol 2, read-out: Dmax
In short: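 MV4-11 cells treated with compound 24 h at 37° C., then fixed, permeabilised and immunostained for BRD9 (anti-BRD9 E4Q3F, Alexa 647 secondary, Hoechst counterstain). High-content imaging quantified nuclear BRD9 signal; % BRD9 remaining normalised to DMSO and 100 nM CFT-8634 controls.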

Compound | DC50 [nM] | Dmax [%]
COc1cc(-c2cn(C)c(=O)c(C)c2C)cc(OC)c1CN1CCN(Cc2cccc3c2CCN(C(=O)/C(C#N)=C/C(C)(C)C(F)F)C3C)C2(CC2)C1 (mixture of isomers) [Compound B138, (E/Z)-2-(5-((7-(2,6-dimethoxy-4-(1,4,5-trimethyl-6-oxo-1,6-dihydropyridin-3-yl)benzyl)-4,7-diazaspiro[2.5]octan-4-yl)methyl)-1-methyl-1,2,3,4-tetrahydroisoquinoline-2-carbonyl)-5,5-difluoro-4,4-dimethylpent-2-enenitrile] | < 1.25 | > 75
COc1cc(-c2cn(C)c(=O)c(C)c2C)cc(OC)c1CN1CCN(Cc2cccc3c2CCN(C(=O)/C(C#N)=C/C2(CF)CC2)C3C)C2(CC2)C1 (mixture of isomers) [Compound B144, (E/Z)-2-(5-((7-(2,6-dimethoxy-4-(1,4,5-trimethyl-6-oxo-1,6-dihydropyridin-3-yl)benzyl)-4,7-diazaspiro[2.5]octan-4-yl)methyl)-1-methyl-1,2,3,4-tetrahydroisoquinoline-2-carbonyl)-3-(1-(fluoromethyl)cyclopropyl)acrylonitrile] | < 1.25 | > 75
COc1cc(-c2cn(C)c(=O)c(C)c2C)cc(OC)c1CN1CCN(Cc2cccc3c2CCN(C(=O)/C(C#N)=C/C(C)(C)C)[C@H]3C)C2(CC2)C1 (single isomer, unassigned) [Compound B146, (E/Z)-2-(5-((7-(2,6-dimethoxy-4-(1,4,5-trimethyl-6-oxo-1,6-dihydropyridin-3-yl)benzyl)-4,7-diazaspiro[2.5]octan-4-yl)methyl)-1-methyl-1,2,3,4-tetrahydroisoquinoline-2-carbonyl)-4,4-dimethylpent-2-enenitrile] | < 1.25 | > 75
COc1cc(-c2cn(C)c(=O)c(C)c2C)cc(OC)c1CN1CCN(Cc2cccc3c2CCN(C(=O)/C(C#N)=C/C2CCCCC2)C3C)CC1 (mixture of isomers) [Compound B73, (E/Z)-3-cyclohexyl-2-(5-((4-(2,6-dimethoxy-4-(1,4,5-trimethyl-6-oxo-1,6-dihydropyridin-3-yl)benzyl)piperazin-1-yl)methyl)-1-methyl-1,2,3,4-tetrahydroisoquinoline-2-carbonyl)acrylonitrile] | 25 to 1000 | 40 to 70
COc1cc(-c2cn(C)c(=O)c(C)c2C)cc(OC)c1CN1C2CC1CN(C(=O)/C(C#N)=C/c1cccc(C(F)(F)F)n1)C2 (mixture of isomers) [Compound B188, (E/Z)-2-(6-(2,6-dimethoxy-4-(1,4,5-trimethyl-6-oxo-1,6-dihydropyridin-3-yl)benzyl)-3,6-diazabicyclo[3.1.1]heptane-3-carbonyl)-3-(6-(trifluoromethyl)pyridin-2-yl)acrylonitrile] | < 1.25 | > 75
COc1cc(-c2cn(C)c(=O)c(C)c2C)cc(OC)c1CN1CCN(Cc2ccc3c(c2)[C@H](C)N(C(=O)/C(C#N)=C/C(C)(C)CF)CC3)CC12CC2 (single isomer, unassigned) [Compound C33] | 1.25 to 10 | > 75
COc1cc(-c2cc(C)c(=O)n(C)c2)cc(OC)c1CN1CCN(Cc2cccc(C3CCCN3C(=O)/C(C#N)=C/C(C)(C)C)c2)CC1 (mixture of isomers) [Compound B81] | < 1.25 | > 75
COc1cc(-c2cn(C)c(=O)c(C)c2C)cc(OC)c1CN1CCC2(CCN(c3cccc4c3CCN(C(=O)/C(C#N)=C/C(C)(C)C)C4C)C2)C1 (stereo not drawn) [Compound C42, (E2Z)-2-(5-(7-(2,6-dimethoxy-4-(1,4,5-trimethyl-6-oxo-1,6-dihydropyridin-3-yl)benzyl)-2,7-diazaspiro[4.4]nonan-2-yl)-1-methyl-1,2,3,4-tetrahydroisoquinolin-2-carbonyl)-4,4-dimethylpent-2-enenitrile] | 1.25 to 10 | 40 to 70
COc1cc(-c2cn(C)c(=O)c(C)c2C)cc(OC)c1CN1CCN(Cc2cccc3c2CCN(C(=O)/C(C#N)=C/C(C)(C)C)C3C)[C@@H](C)C1 (mixture of isomers) [Compound B102] | 25 to 1000 | > 75
COc1cc(-c2cn(C)c(=O)c(C)c2C)cc(OC)c1CN1CCN(Cc2cccc3c2CCN(C(=O)/C(C#N)=C/C(C)(C)CF)C3C(C)C)CC12CC2 (single isomer, unassigned) [Compound C102, (E/Z)-2-(5-((4-(2,6-dimethoxy-4-(1,4,5-trimethyl-6-oxo-1,6-dihydropyridin-3-yl)benzyl)-4,7-diazaspiro[2.5]octan-7-yl)methyl)-1-isopropyl-1,2,3,4-tetrahydroisoquinoline-2-carbonyl)-5-fluoro-4,4-dimethylpent-2-enenitrile] | 25 to 1000 | 40 to 70
COc1cc(-c2cn(C)c(=O)c(C)c2C)cc(OC)c1CN1C[C@H](C)N(Cc2cccc3c2CCN(C(=O)/C(C#N)=C/C(C)(C)C)C3C)C[C@@H]1C (mixture of isomers) [Compound B121, (E/Z)-2-(5-(((2S,5S)-4-(2,6-dimethoxy-4-(1,4,5-trimethyl-6-oxo-1,6-dihydropyridin-3-yl)benzyl)-2,5-dimethylpiperazin-1-yl)methyl)-1-methyl-1,2,3,4-tetrahydroisoquinoline-2-carbonyl)-4,4-dimethylpent-2-enenitrile] | 25 to 1000 | 40 to 70
COc1cc(-c2cn(C)c(=O)c(C)c2C)cc(OC)c1CN1CCN(Cc2cccc3c2CCN(C(=O)/C(C#N)=C/C(C)(C)C)[C@H]3C(C)C)CC12CC2 (single isomer, unassigned) [Compound C81, (E/Z)-2-(5-((4-(2,6-dimethoxy-4-(1,4,5-trimethyl-6-oxo-1,6-dihydropyridin-3-yl)benzyl)-4,7-diazaspiro[2.5]octan-7-yl)methyl)-1-isopropyl-1,2,3,4-tetrahydroisoquinoline-2-carbonyl)-4,4-dimethylpent-2-enenitrile] | 1.25 to 10 | > 75
COc1cc(-c2cn(C)c(=O)c(C)c2C)cc(OC)c1CN1CC(N(C)Cc2ccc3c(c2)[C@H](C)N(C(=O)/C(C#N)=C/C(C)(C)C)CC3)C1 (single isomer, unassigned) [Compound C70, (E/Z)-2-(7-(((1-(2,6-dimethoxy-4-(1,4,5-trimethyl-6-oxo-1,6-dihydropyridin-3-yl)benzyl)460zetidine-4-yl)(methyl)amino)methyl)-1-methyl-1,2,3,4-tetrahydroisoquinoline-2-carbonyl)-4,4-dimethylpent-2-enenitrile] | 25 to 1000 | 40 to 70
CC[C@H]1c2cccc(CN3CCN(Cc4c(OC)cc(-c5cn(C)c(=O)c(C)c5C)cc4OC)CC34CC4)c2CCN1C(=O)/C(C#N)=C/C(C)(C)CF (single isomer, unassigned) [Compound C92, (E/Z)-2-(5-((7-(2,6-dimethoxy-4-(1,4,5-trimethyl-6-oxo-1,6-dihydropyridin-3-yl)benzyl)-4,7-diazaspiro[2.5]octan-4-yl)methyl)-1-ethyl-1,2,3,4-tetrahydroisoquinoline-2-carbonyl)-5-fluoro-4,4-dimethylpent-2-enenitrile] |  | 40 to 70
COc1cc(-c2cn(C)c(=O)c(C)c2C)cc(OC)c1CN1CCN(Cc2cccc3c2CCN(C(=O)/C(C#N)=C/C(C)(C)C)C3C(C)C)CC12CC2 (mixture of isomers) [Compound C10, (E/Z)-2-(5-((4-(2,6-dimethoxy-4-(1,4,5-trimethyl-6-oxo-1,6-dihydropyridin-3-yl)benzyl)-4,7-diazspiro[2.5-]octan-7-yl)methyl)-1-isopropyl-1,2,3,4-tetrahydroisoquinoline-2-carbonyl)-4,4-dimethylpent-2-enenitrile] | 1.25 to 10 | > 75
COc1cc(-c2cn(C)c(=O)c(C)c2C)cc(OC)c1CN1CCN(Cc2cccc3c2CCN(C(=O)/C(C#N)=C/c2cccc(Br)n2)C3C)CC12CC2 (mixture of isomers) [Compound B61, (E/Z)-3-(6-bromopyridin-2-yl)-2-(5-((4-(2,6-dimethoxy-4-(1,4,5-trimethyl-6-oxo-1,6-dihydropyridin-3-yl)benzyl)-4,7-diazaspiro[2.5]octan-7-yl)methyl)-1-methyl-1,2,3,4-tetrahydroisoquinoline-2-carbonyl)acrylonitrile] | 1.25 to 10 | > 75
CCCC1c2cccc(CN3CCN(Cc4c(OC)cc(-c5cn(C)c(=O)c(C)c5C)cc4OC)CC34CC4)c2CCN1C(=O)/C(C#N)=C/C(C)(C)C (mixture of isomers) [Compound C17, (E/Z)-2-(5-((7-(2,6-dimethoxy-4-(1,4,5-trimethyl-6-oxo-1,6-dihydropyridin-3-yl)benzyl)-4,7-diazaspiro[2.5]octan-4-yl)methyl)-1-propyl-1,2,3,4-tetrahydroisoquinoline-2-carbonyl)-4,4-dimethylpent-2-enenitrile] | 1.25 to 10 | > 75
